From article PMC3815312, “A Set of Engineered Escherichia coli Expression Strains for Selective Isotope and Reactivity Labeling of Amino Acid Side Chains and Flavin Cofactors” (PLoS ONE, 2013) come the findings set out here.

For the test, the target named is T1, Slr1694 (SyPixD) (Synechocystis sp. PCC 6803, UniProt P74295).
T1 construct: wild type, expressed from pET28a(+)-slr1694 in E. coli CpX strains (CpXribF, CpXdeltaY); N-terminal vector extension (peptide 33-GSEFMSLYR-41 seen by MS); flavin incorporated in vivo; unlabeled, ring-13C6-Tyr or 13C apoprotein
T1 sequence (P74295 1-150): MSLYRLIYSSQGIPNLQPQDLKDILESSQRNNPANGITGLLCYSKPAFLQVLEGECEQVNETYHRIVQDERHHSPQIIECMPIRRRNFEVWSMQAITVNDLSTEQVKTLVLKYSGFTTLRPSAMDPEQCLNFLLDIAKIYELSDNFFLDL
Description: light-minus-dark FTIR difference spectroscopy of holoprotein. In kind it is binding. The note with it: in H2O; blue light 460 nm; non-covalent flavin incorporated in vivo (unlabeled riboflavin fed); bound flavin species not analysed, FMN and FAD named.

Take `Cc1cc2nc3c(=O)[nH]c(=O)nc-3n(C[C@H](O)[C@H](O)[C@H](O)COP(=O)(O)OP(=O)(O)OC[C@H]3O[C@@H](n4cnc5c(N)ncnc54)[C@H](O)[C@@H]3O)c2cc1C` [FAD]: the “light-minus-dark FTIR difference spectroscopy of holoprotein” value is “unlabeled riboflavin was provided in the medium throughout the cultivation procedure for the production of FMN and FAD cofactors”.
